Values belong to the compound of their own block, whether it stands above or below them.
Legend:
[1] = molecular target: Angiopoietin-1 receptor (Homo sapiens) (UniProt Q02763); assay: Selectivity interaction (KinaseProfiler screening (Millipore)) EUB0000601a TEK; settings: at 3 µM
[2] = molecular target: Serine/threonine-protein kinase 32B (Homo sapiens) (UniProt Q9NY57); assay: Selectivity interaction (Ambit KINOMEscan and KiNATiv profiling in Jurkat cells) EUB0000090b STK32B; format: cell-based; settings: at 1 µM
Chain of Serine/threonine-protein kinase 32B (Homo sapiens) (Q9NY57 whole entry): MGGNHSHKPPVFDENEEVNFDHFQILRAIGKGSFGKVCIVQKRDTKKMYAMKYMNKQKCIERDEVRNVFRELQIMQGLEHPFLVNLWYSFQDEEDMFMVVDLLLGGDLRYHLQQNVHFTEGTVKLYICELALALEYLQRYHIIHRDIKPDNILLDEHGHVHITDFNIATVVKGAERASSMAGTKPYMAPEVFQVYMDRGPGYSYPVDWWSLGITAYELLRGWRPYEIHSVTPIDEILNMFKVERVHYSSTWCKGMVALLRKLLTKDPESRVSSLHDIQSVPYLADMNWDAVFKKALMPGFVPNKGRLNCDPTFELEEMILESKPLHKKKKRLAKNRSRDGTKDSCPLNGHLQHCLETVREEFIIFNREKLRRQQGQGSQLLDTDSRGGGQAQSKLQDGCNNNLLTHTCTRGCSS

[3] = molecular target: Serine/threonine-protein kinase pim-3 (Homo sapiens) (UniProt Q86V86); assay: Selectivity interaction (Kinase panel (literature)) EUB0001199aCl PIM3; settings: at 1 µM
[4] = molecular target: Activin receptor type-1-like (Homo sapiens) (UniProt P37023); assay: Selectivity interaction (KinomeScan (DiscoverX)) EUB0001079a ACVRL1; settings: at 1 µM
[5] = molecular target: Ribosomal protein S6 kinase alpha-2 (Homo sapiens) (UniProt Q15349); assay: Selectivity interaction (SelectScreen profiling (Invitrogen)) EUB0000607a RPS6KA2; settings: at 2 µM
[6] = molecular target: Serine/threonine-protein kinase 16 (Homo sapiens, UniProt O75716); assay: Selectivity interaction (KinomeScan (DiscoverX)) EUB0001619a STK16; settings: at 1 µM
[7] = molecular target: T1, Membrane-associated tyrosine- and threonine-specific cdc2-inhibitory kinase (Homo sapiens) (UniProt Q99640); assay: Selectivity interaction (Kinase panel (DSF assay)) EUB0001558a PKMYT1
T1 sequence (whole entry): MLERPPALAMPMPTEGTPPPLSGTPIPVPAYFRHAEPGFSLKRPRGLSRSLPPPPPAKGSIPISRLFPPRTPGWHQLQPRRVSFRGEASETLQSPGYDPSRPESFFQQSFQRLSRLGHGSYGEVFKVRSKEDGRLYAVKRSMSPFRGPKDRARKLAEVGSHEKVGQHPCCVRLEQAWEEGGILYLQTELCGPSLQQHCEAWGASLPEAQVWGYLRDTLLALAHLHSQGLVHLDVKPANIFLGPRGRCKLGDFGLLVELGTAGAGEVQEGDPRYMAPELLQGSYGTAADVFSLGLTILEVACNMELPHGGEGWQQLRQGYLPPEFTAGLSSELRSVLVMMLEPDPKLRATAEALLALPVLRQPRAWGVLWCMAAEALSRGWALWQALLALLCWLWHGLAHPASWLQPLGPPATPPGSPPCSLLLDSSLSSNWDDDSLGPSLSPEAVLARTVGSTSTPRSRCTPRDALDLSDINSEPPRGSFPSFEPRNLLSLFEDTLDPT

[8] = molecular target: Tyrosine-protein kinase ABL1 (Homo sapiens, UniProt P00519); settings: at 10 µM
Chain of Tyrosine-protein kinase ABL1 (P00519 whole entry): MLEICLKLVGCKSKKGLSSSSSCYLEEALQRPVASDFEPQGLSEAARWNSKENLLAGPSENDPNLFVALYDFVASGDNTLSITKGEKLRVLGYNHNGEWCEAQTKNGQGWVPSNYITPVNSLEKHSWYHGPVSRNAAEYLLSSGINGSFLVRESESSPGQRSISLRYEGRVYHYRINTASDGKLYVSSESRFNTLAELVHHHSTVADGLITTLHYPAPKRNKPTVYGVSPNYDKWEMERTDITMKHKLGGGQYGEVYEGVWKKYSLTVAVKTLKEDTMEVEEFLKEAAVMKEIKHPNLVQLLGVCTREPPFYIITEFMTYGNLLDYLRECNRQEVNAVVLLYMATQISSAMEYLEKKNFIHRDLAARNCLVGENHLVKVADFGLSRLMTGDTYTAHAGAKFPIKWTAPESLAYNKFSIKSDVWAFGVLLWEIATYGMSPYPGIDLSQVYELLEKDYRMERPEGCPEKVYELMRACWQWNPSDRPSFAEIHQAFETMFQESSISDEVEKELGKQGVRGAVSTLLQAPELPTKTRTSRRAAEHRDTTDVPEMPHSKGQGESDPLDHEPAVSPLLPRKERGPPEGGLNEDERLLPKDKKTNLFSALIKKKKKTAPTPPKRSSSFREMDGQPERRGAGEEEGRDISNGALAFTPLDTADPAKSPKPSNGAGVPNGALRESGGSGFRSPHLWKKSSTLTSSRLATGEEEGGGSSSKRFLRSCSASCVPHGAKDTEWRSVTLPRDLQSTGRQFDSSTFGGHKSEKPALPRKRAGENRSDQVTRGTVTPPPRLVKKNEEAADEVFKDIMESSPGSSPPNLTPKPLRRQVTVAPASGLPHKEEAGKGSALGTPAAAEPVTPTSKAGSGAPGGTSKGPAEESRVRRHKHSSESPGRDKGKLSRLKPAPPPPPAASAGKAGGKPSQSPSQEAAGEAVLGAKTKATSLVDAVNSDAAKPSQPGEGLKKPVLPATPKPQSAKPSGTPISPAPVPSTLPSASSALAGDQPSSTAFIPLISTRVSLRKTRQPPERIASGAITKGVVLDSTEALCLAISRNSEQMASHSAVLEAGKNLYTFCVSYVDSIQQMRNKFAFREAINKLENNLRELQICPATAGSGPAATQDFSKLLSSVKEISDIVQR

[9] = molecular target: T2, cAMP-dependent protein kinase catalytic subunit PRKX (Homo sapiens) (UniProt P51817); assay: Selectivity interaction (Kinase panel (Invitrogen)) EUB0000639a PRKX; settings: at 200 nM
T2 sequence (whole entry): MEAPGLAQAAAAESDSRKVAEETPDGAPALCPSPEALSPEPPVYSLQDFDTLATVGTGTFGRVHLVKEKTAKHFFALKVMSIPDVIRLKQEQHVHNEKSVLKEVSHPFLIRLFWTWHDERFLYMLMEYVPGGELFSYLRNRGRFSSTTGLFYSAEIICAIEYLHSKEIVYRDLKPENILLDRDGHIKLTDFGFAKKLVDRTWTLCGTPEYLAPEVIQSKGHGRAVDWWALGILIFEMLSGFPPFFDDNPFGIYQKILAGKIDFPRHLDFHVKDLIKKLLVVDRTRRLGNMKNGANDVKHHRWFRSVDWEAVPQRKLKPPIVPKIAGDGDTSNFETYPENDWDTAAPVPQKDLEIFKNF

[10] = molecular target: Serine/threonine-protein kinase 24 (Homo sapiens) (UniProt Q9Y6E0); assay: Selectivity interaction (Kinase panel (Invitrogen)) EUB0000639a STK24; settings: at 200 nM
[11] = molecular target: T3, Serine/threonine-protein kinase BRSK2 (Homo sapiens) (UniProt Q8IWQ3); assay: Selectivity interaction (KinomeScan (DiscoverX)) EUB0000666a BRSK2; settings: at 10 µM
T3 sequence (whole entry): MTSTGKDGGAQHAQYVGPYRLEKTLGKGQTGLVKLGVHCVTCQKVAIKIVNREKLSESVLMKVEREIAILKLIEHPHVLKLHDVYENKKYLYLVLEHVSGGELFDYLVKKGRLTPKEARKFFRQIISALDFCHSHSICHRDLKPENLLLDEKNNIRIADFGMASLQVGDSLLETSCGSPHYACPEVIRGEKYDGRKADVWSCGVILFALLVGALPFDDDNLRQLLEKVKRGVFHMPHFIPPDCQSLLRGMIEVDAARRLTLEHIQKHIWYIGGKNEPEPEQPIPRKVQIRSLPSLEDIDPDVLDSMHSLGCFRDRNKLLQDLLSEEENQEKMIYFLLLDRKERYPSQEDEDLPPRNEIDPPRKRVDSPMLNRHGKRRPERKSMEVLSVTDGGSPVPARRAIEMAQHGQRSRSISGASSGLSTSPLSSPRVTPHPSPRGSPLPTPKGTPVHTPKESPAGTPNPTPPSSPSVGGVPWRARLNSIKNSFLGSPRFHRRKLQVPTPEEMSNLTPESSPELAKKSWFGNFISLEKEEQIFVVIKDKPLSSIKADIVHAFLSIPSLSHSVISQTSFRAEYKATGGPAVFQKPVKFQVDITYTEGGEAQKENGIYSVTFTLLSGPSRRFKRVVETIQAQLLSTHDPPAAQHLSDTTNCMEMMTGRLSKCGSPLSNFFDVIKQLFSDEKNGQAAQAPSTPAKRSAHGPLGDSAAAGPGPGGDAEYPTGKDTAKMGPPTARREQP

[12] = molecular target: Casein kinase II subunit alpha' (Homo sapiens) (UniProt P19784); assay: Selectivity interaction (KinomeScan (DiscoverX)) EUB0000666a CSNK2A2; settings: at 10 µM
Chain of Casein kinase II subunit alpha' (Homo sapiens) (P19784 whole entry, looked up): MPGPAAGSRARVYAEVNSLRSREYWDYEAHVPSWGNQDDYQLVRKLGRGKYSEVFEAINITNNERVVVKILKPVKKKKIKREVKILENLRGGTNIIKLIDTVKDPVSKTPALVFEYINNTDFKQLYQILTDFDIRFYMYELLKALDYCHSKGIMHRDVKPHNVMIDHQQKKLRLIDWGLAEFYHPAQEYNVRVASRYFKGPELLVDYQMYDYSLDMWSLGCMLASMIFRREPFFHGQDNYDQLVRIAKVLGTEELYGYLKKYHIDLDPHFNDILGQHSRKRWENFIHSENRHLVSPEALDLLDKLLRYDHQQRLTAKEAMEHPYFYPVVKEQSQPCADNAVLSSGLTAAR

[13] = molecular target: Protein polybromo-1 (Homo sapiens) (UniProt Q86U86); assay: Selectivity interaction (Human bromodomain panel (DSF assay)) EUB0000233b PBRM1
Chain of Protein polybromo-1 (Homo sapiens) (Q86U86 whole entry): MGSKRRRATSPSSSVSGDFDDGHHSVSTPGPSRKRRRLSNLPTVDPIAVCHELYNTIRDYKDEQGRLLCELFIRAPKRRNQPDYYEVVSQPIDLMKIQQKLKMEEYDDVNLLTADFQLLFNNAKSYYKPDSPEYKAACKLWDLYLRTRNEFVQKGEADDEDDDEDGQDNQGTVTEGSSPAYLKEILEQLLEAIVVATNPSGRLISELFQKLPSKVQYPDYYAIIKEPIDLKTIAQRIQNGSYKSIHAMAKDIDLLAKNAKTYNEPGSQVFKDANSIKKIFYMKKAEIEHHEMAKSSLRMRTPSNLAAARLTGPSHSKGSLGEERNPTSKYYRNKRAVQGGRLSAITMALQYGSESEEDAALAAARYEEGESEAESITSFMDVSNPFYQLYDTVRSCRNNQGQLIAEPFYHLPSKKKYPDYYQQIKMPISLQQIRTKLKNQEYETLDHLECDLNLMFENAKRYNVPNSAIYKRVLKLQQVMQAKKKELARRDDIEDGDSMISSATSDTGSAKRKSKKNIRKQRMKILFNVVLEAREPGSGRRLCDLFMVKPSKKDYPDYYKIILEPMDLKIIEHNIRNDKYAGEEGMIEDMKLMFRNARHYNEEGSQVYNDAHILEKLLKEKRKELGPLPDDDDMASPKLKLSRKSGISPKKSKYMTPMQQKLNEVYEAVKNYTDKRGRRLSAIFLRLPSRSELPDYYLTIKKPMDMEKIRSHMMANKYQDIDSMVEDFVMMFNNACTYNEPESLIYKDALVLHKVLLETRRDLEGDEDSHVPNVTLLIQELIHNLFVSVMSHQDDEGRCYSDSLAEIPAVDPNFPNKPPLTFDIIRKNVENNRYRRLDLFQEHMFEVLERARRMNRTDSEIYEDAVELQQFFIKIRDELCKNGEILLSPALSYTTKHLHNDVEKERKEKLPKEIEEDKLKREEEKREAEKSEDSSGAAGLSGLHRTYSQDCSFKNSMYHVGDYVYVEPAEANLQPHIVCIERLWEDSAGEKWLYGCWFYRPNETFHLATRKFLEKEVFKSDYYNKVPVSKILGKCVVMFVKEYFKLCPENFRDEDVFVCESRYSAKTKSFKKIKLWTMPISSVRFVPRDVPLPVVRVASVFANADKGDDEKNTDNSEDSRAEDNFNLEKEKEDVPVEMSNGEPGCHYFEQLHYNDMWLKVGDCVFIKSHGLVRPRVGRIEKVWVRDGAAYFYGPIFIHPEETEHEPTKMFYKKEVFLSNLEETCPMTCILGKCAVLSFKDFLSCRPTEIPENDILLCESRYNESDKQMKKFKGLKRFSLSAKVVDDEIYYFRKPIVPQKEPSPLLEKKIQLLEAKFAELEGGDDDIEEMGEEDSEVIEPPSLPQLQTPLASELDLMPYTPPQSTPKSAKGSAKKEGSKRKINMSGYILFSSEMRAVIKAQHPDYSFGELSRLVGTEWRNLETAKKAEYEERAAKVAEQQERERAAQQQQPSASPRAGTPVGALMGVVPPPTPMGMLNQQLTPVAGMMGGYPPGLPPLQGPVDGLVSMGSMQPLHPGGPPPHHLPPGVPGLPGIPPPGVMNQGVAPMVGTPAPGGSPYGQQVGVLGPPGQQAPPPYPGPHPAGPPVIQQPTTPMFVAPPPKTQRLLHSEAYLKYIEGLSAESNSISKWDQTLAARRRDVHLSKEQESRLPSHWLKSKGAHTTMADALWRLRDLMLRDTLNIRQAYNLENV

[14] = molecular target: Serine/threonine-protein kinase 25 (Homo sapiens) (UniProt O00506); assay: Selectivity interaction (Kinase panel (Z-LYTE Assay)) EUB0001632a STK25; settings: at 10 µM

Chain of Angiopoietin-1 receptor (Homo sapiens) (Q02763 whole entry): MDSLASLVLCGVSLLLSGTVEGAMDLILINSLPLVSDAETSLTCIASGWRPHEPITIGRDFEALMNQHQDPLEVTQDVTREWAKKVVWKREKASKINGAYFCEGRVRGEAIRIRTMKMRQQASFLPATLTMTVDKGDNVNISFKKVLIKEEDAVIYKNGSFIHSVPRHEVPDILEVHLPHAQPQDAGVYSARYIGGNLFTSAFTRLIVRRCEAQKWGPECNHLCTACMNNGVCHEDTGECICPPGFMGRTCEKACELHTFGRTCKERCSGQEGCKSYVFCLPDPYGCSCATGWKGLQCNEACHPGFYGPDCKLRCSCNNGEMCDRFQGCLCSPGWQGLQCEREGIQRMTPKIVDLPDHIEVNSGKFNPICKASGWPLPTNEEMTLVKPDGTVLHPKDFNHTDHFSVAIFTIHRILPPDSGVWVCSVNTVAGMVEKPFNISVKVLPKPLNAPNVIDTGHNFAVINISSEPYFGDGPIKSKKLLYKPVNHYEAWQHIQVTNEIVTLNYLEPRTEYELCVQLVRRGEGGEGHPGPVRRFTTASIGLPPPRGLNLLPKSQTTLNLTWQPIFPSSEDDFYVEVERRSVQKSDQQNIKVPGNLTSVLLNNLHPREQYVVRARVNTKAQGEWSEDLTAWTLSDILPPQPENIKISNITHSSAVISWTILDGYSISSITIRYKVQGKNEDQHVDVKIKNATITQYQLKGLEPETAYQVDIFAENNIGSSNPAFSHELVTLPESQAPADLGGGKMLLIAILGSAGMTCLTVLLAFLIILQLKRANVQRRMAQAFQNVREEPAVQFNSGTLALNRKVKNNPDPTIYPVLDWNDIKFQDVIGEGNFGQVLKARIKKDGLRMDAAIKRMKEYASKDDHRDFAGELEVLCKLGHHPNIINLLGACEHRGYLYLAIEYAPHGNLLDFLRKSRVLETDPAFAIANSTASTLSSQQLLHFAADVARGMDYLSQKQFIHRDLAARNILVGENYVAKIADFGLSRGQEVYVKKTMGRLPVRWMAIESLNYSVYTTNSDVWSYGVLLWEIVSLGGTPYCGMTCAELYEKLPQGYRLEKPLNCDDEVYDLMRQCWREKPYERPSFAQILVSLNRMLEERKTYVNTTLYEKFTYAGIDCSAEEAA

% of inhibition [1]: 41%
Compound: CCc1cc(Nc2nccc(-c3c(-c4ccc(OC)c(C(=O)Nc5c(F)cccc5F)c4)nc4ccccn34)n2)c(OC)cc1N1CCC(N2CCN(S(C)(=O)=O)CC2)CC1

Compound: CN(C)C/C=C/C(=O)Nc1ccc(C(=O)N2CCCC(Nc3ncc(Cl)c(-c4c[nH]c5ccccc45)n3)C2)cc1 (centres undefined)
% of control [2]: 90%

% of inhibition [3]: 1%
Compound: CN1Cc2nccc(-c3cn(C)nc3-c3ccc(F)cc3)c2C1=O

Compound: Nc1cnc(N2CCc3cc(S(=O)(=O)Nc4c(F)cc(Cl)cc4F)cc(N4CCCC4=O)c32)nc1 [TP-020n]
% of control [4]: 86%

Compound: CNC(=O)Nc1ccc(-c2nc(N3CC4CCC(C3)O4)c3cnn(C4CCC5(CC4)OCCO5)c3n2)cc1
% of inhibition [5]: -1%

Compound: N#Cc1cccc(-c2c[nH]c3ncnc(N4CCOCC4)c23)c1
% of control [6]: 33%

Compound: CC(C)(O)[C@H](F)CN1Cc2cc(NC(=O)c3cnn4cccnc34)c(N3CCOCC3)cc2C1=O
dTM [7]: 0.5 K

Compound: Cc1cc([C@@H](C)Nc2ccccc2C(=O)O)c2nc(N3CCOCC3)cc(=O)n2c1 [AZD-6482]
% of control [8]: 100%

% of inhibition [9]: 11.1%
% of inhibition [10]: 23.2%
Compound: CC[C@@H]1[C@H](F)C(=O)N[C@@H]1COc1nccc2cc(C(N)=O)c(OC)cc12 [ZIMLOVISERTIB]

Compound: O=C(NOC[C@H](O)CO)c1ccc(F)c(F)c1Nc1ccc(I)cc1F
% of control [11]: 100%
% of control [12]: 100%

dTM [13]: < 2 K
Compound: CN(C)CCCOc1ccc(-c2cc(NCCCn3cccn3)nc(S(C)(=O)=O)n2)cc1

% of control [14]: 17.9%
Compound: Cn1cc(-n2cnc3c(NCc4nc5cc(Cl)c(Cl)cc5[nH]4)nc(N4CCOCC4)nc32)cn1
